This note sets out measurements from ChEMBL document CHEMBL4049391, “Vicinal diaryl azole-based urea derivatives as potential cholesterol lowering agents acting through inhibition of SOAT enzymes” (Eur J Med Chem, 2017).

Test [1] is described as follows: Inhibition of rat microsomal SOAT assessed as reduction in cholesteryl oleate formation from oleoyl co-enzyme A pretreated for 15 mins followed by oleoyl co-enzyme A addition after 10 mins by HPTLC method.
Test [2] concerns Rattus norvegicus. Description: Anti-hypercholesterolemic activity in poloxamer-407-induced Wistar rat lipoprotein lipase inhibition model assessed as fold change in triglyceride level at 20 mg/kg administered as single dose via oral gavage pretreated for 4 hrs followed by poloxamer-407 induction measured over 24 hrs (reference value: 80). In kind it is functional.
For test [3], the species on record is Rattus norvegicus. Put plainly: Inhibition of rat microsomal SOAT assessed as reduction in cholesteryl oleate formation from oleoyl co-enzyme A at 10 uM pretreated for 15 mins followed by oleoyl co-enzyme A addition measured after 10 mins by HPTLC method relative to control.
Test [4] deals with T1, Sterol O-acyltransferase 2 (Homo sapiens, UniProt O75908).
T1 sequence (O75908 whole entry): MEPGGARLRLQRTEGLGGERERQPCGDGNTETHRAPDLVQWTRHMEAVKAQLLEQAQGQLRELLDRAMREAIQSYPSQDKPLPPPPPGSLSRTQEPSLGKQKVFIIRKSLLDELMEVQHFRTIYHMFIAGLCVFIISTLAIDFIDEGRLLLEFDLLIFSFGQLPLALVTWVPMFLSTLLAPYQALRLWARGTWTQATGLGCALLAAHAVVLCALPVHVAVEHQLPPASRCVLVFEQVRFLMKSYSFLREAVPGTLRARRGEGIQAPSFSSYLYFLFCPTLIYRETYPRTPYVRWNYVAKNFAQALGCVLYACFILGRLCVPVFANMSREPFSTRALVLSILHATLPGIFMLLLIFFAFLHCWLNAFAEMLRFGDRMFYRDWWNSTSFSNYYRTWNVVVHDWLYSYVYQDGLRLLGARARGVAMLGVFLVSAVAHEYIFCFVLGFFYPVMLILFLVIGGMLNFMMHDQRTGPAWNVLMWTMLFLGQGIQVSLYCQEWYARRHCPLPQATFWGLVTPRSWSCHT
Put plainly: Inhibition of human SOAT2.

By IC50 is commonly meant the midpoint of a concentration-inhibition curve. A word on the pIC50: it is the negative decadic logarithm of the IC50, by convention in mol/L. As usually defined, the inhibition is how much of the control response was suppressed. Consider `CCc1cccc(CC)c1NC(=O)Nc1ccc(-c2sc(C)nc2-c2ccc(Cl)cc2)cc1`, for which, in test [1], the IC50 is 4.04 µM and the pIC50 came to 5.3936. Moreover, the “fold change (FC)” value with Rattus norvegicus [2] was 50 - 90. Also, the inhibition in the test filed under Rattus norvegicus [3] turned out to be 63.3%.

With `CCc1cccc(CC)c1NC(=O)Nc1ccc(-c2sc(C)nc2-c2ccc(F)cc2)cc1`, in test [1], the IC50 amounted to 8.4 µM and the pIC50 stood at 5.075. Besides, the “fold change (FC)” value with Rattus norvegicus [2] is recorded as 50 - 90. For the same compound, in the test listed under Rattus norvegicus [3], the inhibition came to 46.7%.

In the case of `CCCCCCCNC(=O)Nc1ccc(-c2sc(C)nc2-c2ccc(F)cc2)cc1`, in test [1], the 50% inhibitory concentration (IC50) was 5.69 µM and the pIC50 was determined as 5.244. For the same compound, in the test on Rattus norvegicus [2], the “fold change (FC)” value is 50 - 90. Further, in the test filed under Rattus norvegicus [3], the inhibition was 63%.

Regarding `O=C(NCCCCCCSc1nc(-c2ccccc2)c(-c2ccccc2)[nH]1)Nc1ccc(F)cc1F`, in test [4], the IC50 was 1.74 µM.

With `COc1ccc(-c2nc(NC(=O)Nc3ccc(F)cc3F)sc2-c2ccc(NC(C)=O)cc2)cc1`, in test [1], the IC50 was found to be 31.9 µM and the pIC50 came out at 4.496. The inhibition in the test listed under Rattus norvegicus [3] amounted to 39%.

On to `CCCCCCCCCCCCNC(=O)Nc1ccc(-c2sc(C)nc2-c2ccc(F)cc2)cc1`, for which, in test [1], the IC50 worked out at 48.6 µM and the pIC50 is recorded as 4.313. The inhibition in the test listed under Rattus norvegicus [3] stood at 34.5%.

For `CCCCCCCNC(=O)Nc1nc(-c2ccc(OC)cc2)c(-c2ccc(Cl)cc2)s1`, in test [1], the IC50 came to 21.3 µM and the pIC50 worked out at 4.672. The inhibition in the test listed under Rattus norvegicus [3] was found to be 1.73%.

`CCc1cccc(CC)c1NC(=O)Nc1ccc(-c2sc(C)nc2-c2ccc(C)cc2)cc1`: in test [1], the half-maximal inhibitory concentration (IC50) was determined as 30.9 µM and the pIC50 was determined as 4.412. In the test filed under Rattus norvegicus [3], the inhibition amounted to 30.9%.

`CCCCCCCNC(=O)Nc1ccc(-c2sc(C)nc2-c2ccc(Cl)cc2)cc1`: in test [1], the IC50 turned out to be 7.85 µM and the pIC50 is listed as 5.105. Also, in the test on Rattus norvegicus [2], the “fold change (FC)” value was 50 - 90. Further, in the test listed under Rattus norvegicus [3], the inhibition was 52.2%.

For the compound `CC(C)c1cc(C(C)C)c(CC(=O)NS(=O)(=O)Oc2c(C(C)C)cccc2C(C)C)c(C(C)C)c1` [AVASIMIBE], the “fold change (FC)” value in the test with Rattus norvegicus [2] worked out at 20.

Turning to `COc1cc(NC(=O)Nc2ccc(-c3sc(C)nc3-c3ccc(F)cc3)cc2)cc(OC)c1OC`, in test [1], the IC50 came out at 12.6 µM and the pIC50 was 4.898. The inhibition in the test listed under Rattus norvegicus [3] was found to be 42%.

As to `Cc1nc(-c2ccc(F)cc2)c(-c2ccc(NC(=O)Nc3c(C(C)C)cccc3C(C)C)cc2)s1`, in test [1], the IC50 worked out at 11.8 µM and the pIC50 was 4.926. Besides, the inhibition in the test listed under Rattus norvegicus [3] worked out at 42.1%.

As to `Cc1nc(-c2ccc(F)cc2)c(-c2ccc(NC(=O)Nc3ccc(F)cc3F)cc2)s1`, in test [1], the IC50 turned out to be 196 µM and the negative logarithm of the IC50 (pIC50) is 3.7081. Also, in the test listed under Rattus norvegicus [3], the inhibition is 4.97%.

`CCCCNC(=O)Nc1nc(-c2ccc(C)cc2)c(-c2ccc(Cl)cc2)s1`: in test [1], the IC50 worked out at 94 µM and the pIC50 amounted to 4.0271. Moreover, the inhibition in the test filed under Rattus norvegicus [3] was found to be 36.4%.

Turning to `CCCCNC(=O)Nc1ccc(-c2sc(C)nc2-c2ccc(Cl)cc2)cc1`, in test [1], the concentration for half-maximal inhibition (IC50) is 6.27 µM and the pIC50 amounted to 5.202. Also, in the test with Rattus norvegicus [2], the “fold change (FC)” value is 50 - 90. The inhibition in the test filed under Rattus norvegicus [3] worked out at 60.7%.
